According to ChEMBL document CHEMBL5226343, “Structure-Activity Relationship of USP5 Inhibitors” (J Med Chem, 2021):

Legend:
[1] = molecular target: T1, Protein deacetylase HDAC6 (Homo sapiens, UniProt Q9UBN7)
T1 sequence (Q9UBN7 whole entry): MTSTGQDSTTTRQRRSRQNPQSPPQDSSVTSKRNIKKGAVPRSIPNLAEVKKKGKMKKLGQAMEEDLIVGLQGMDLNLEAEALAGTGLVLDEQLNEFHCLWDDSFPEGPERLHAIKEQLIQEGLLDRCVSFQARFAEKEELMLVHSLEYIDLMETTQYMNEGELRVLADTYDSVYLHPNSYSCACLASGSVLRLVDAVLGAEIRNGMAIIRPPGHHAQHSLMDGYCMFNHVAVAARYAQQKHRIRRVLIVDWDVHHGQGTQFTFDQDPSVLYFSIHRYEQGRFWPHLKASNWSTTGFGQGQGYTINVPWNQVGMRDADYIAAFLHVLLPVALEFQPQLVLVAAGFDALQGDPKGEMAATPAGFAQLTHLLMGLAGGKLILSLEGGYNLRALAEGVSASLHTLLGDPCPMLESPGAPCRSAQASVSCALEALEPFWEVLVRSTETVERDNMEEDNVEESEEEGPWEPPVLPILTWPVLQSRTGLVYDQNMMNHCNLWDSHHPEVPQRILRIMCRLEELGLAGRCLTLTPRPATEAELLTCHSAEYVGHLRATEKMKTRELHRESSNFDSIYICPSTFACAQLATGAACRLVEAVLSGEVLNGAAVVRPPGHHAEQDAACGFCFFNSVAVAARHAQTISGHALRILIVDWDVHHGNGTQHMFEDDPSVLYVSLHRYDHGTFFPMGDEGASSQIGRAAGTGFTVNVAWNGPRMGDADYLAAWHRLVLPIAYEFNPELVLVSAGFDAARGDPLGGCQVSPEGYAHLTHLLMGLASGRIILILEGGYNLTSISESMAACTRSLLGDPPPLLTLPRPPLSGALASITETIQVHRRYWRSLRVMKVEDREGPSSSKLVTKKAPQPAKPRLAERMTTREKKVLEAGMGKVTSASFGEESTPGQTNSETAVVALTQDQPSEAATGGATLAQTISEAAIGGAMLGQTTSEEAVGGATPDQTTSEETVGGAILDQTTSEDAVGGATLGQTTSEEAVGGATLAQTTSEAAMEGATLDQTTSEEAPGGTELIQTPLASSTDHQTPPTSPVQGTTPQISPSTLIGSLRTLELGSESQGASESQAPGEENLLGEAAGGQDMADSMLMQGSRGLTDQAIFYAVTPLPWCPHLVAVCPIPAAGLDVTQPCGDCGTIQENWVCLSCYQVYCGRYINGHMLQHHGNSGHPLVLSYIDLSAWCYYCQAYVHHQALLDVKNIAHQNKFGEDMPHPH

[2] = molecular target: T2, Ubiquitin carboxyl-terminal hydrolase 4 (Homo sapiens, UniProt Q13107); assay: Inhibition of USP4 (unknown origin)
T2 sequence (Q13107 whole entry): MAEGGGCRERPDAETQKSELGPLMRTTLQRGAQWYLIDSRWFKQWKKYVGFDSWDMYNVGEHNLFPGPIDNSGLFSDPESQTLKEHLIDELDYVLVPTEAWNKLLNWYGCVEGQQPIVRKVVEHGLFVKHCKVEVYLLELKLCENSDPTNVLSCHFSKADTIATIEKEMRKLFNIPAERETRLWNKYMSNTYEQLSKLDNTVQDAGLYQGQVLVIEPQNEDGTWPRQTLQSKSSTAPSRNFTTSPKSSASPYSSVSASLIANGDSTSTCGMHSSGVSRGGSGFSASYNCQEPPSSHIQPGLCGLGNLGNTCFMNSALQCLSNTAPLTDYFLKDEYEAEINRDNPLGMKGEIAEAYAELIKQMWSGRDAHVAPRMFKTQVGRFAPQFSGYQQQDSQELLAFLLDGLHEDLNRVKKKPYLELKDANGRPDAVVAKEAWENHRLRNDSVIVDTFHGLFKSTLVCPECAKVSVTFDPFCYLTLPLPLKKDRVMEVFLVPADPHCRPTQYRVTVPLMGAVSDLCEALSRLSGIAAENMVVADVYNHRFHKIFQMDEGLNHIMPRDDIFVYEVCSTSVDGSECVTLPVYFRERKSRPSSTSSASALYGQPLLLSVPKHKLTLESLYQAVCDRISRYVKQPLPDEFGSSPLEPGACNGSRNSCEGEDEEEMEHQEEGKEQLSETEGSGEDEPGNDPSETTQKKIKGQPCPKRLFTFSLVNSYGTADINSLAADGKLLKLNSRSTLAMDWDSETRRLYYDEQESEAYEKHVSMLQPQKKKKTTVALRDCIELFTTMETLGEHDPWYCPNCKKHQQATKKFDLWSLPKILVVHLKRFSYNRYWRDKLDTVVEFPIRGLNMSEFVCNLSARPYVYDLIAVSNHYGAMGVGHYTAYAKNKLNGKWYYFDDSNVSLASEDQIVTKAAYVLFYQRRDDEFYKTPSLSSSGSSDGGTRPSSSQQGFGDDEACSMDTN

[3] = molecular target: T3, Ubiquitin carboxyl-terminal hydrolase 5 (Homo sapiens, UniProt P45974); assay: Inhibition of USP5 (unknown origin)
T3 sequence (P45974 whole entry): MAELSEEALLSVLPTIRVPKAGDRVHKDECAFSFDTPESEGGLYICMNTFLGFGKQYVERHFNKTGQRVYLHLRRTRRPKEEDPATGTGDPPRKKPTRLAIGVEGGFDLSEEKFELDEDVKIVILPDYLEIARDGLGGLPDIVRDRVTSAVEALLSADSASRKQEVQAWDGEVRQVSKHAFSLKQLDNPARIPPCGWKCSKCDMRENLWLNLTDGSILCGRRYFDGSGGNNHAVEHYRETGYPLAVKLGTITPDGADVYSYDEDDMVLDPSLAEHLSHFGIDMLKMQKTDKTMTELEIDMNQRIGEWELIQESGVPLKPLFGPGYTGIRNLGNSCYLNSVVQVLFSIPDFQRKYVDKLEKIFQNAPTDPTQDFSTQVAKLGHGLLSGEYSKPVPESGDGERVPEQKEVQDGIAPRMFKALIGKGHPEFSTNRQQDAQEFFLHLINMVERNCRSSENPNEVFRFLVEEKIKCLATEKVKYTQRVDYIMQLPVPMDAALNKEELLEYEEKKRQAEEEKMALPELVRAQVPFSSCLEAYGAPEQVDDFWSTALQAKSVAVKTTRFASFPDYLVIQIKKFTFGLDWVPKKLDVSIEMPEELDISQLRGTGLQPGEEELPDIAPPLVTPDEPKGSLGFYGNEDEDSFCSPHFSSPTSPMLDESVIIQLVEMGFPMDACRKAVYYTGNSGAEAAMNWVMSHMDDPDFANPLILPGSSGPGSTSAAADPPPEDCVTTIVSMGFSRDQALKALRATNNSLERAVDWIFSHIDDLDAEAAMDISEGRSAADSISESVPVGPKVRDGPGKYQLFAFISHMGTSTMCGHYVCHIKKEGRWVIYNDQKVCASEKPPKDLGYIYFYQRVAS

[4] = molecular target: T4, Ubiquitin carboxyl-terminal hydrolase 2 (Homo sapiens, UniProt O75604); assay: Inhibition of USP2 (unknown origin)
T4 sequence (O75604 whole entry): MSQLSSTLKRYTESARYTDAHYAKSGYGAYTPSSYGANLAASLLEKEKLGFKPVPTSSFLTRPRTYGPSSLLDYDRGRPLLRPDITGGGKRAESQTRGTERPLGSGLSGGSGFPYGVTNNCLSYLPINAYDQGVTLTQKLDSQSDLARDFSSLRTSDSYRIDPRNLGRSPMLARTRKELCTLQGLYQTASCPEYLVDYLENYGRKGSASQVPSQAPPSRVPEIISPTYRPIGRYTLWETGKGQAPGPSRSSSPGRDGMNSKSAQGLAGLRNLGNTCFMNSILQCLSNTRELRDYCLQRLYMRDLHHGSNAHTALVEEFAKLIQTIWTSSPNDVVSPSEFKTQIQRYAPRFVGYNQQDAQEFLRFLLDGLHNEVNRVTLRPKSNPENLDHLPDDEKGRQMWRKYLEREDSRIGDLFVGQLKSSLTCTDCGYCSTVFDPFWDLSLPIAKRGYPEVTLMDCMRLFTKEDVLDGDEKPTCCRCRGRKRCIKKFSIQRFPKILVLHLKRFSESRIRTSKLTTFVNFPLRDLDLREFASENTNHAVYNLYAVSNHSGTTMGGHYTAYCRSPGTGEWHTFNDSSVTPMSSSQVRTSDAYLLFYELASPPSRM

[5] = molecular target: T5, Ubiquitin carboxyl-terminal hydrolase 8 (Homo sapiens, UniProt P40818); assay: Inhibition of USP8 (unknown origin)
T5 sequence (P40818 whole entry): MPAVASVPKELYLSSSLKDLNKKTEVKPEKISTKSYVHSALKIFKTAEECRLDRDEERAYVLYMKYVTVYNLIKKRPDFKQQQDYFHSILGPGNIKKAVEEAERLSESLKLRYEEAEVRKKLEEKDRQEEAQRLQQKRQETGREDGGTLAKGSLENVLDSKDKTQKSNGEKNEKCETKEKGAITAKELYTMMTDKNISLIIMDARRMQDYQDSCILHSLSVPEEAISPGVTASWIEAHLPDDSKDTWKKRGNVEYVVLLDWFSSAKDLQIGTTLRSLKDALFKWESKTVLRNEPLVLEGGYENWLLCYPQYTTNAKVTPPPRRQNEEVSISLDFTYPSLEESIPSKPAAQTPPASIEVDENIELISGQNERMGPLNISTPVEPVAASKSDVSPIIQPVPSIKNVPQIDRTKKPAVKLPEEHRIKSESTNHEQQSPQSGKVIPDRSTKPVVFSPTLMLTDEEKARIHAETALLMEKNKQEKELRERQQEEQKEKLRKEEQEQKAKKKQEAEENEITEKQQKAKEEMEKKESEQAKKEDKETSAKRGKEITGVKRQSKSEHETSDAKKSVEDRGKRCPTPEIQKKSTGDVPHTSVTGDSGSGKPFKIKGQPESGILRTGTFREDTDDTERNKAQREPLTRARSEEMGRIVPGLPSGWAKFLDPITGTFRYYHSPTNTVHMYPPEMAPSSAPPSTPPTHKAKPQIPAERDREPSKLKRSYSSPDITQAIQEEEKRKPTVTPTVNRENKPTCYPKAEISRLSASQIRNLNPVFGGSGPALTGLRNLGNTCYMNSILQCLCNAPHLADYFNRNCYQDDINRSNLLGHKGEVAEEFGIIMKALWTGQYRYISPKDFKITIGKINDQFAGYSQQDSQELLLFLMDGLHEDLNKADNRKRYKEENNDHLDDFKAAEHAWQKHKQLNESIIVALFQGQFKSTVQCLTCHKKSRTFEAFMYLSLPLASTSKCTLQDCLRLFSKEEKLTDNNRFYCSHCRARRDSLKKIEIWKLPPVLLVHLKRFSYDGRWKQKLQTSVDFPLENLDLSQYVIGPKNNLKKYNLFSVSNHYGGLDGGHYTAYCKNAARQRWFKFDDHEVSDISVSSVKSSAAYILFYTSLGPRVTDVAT

[6] = molecular target: Ubiquitin carboxyl-terminal hydrolase 7 (Homo sapiens, UniProt Q93009); assay: Inhibition of USP7 (unknown origin)
[7] = Metabolic stability of the compound in CD-1 mouse liver microsomes assessed as parent compound remaining at 1 uM measured after 60 mins in presence of NADPH regenerating system by LC/MS analysis; assay type: ADME, Microsome; details: read-out: Stability
[8] = Metabolic stability of the compound in human liver microsomes assessed as parent compound remaining at 1 uM measured for 60 mins in presence of NADPH regenerating system by LC/MS analysis; assay type: ADME, Microsome; details: read-out: Stability
[9] = molecular target: T6, Ubiquitin carboxyl-terminal hydrolase 5 (Homo sapiens) (UniProt P45974); assay: Inhibition of USP5 (unknown origin) at 2.5 uM
T6 sequence (whole entry): T3 sequence (P45974 whole entry)

[10] = molecular target: Ubiquitin carboxyl-terminal hydrolase 9X (Homo sapiens) (UniProt Q93008); assay: Inhibition of USP9X (unknown origin) at 2.5 uM
[11] = molecular target: Ubiquitin carboxyl-terminal hydrolase isozyme L1 (Homo sapiens) (UniProt P09936); assay: Inhibition of UCH-L1 (unknown origin) at 2.5 uM
Sequence of Ubiquitin carboxyl-terminal hydrolase isozyme L1 (Homo sapiens) (P09936 whole entry, looked up): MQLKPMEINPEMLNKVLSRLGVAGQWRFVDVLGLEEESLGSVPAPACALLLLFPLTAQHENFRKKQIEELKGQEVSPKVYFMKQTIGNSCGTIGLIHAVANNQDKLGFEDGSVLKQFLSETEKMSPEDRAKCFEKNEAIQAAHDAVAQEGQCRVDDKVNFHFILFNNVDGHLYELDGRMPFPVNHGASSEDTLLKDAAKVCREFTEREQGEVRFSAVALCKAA

Sequence of Ubiquitin carboxyl-terminal hydrolase 9X (Homo sapiens) (Q93008 whole entry): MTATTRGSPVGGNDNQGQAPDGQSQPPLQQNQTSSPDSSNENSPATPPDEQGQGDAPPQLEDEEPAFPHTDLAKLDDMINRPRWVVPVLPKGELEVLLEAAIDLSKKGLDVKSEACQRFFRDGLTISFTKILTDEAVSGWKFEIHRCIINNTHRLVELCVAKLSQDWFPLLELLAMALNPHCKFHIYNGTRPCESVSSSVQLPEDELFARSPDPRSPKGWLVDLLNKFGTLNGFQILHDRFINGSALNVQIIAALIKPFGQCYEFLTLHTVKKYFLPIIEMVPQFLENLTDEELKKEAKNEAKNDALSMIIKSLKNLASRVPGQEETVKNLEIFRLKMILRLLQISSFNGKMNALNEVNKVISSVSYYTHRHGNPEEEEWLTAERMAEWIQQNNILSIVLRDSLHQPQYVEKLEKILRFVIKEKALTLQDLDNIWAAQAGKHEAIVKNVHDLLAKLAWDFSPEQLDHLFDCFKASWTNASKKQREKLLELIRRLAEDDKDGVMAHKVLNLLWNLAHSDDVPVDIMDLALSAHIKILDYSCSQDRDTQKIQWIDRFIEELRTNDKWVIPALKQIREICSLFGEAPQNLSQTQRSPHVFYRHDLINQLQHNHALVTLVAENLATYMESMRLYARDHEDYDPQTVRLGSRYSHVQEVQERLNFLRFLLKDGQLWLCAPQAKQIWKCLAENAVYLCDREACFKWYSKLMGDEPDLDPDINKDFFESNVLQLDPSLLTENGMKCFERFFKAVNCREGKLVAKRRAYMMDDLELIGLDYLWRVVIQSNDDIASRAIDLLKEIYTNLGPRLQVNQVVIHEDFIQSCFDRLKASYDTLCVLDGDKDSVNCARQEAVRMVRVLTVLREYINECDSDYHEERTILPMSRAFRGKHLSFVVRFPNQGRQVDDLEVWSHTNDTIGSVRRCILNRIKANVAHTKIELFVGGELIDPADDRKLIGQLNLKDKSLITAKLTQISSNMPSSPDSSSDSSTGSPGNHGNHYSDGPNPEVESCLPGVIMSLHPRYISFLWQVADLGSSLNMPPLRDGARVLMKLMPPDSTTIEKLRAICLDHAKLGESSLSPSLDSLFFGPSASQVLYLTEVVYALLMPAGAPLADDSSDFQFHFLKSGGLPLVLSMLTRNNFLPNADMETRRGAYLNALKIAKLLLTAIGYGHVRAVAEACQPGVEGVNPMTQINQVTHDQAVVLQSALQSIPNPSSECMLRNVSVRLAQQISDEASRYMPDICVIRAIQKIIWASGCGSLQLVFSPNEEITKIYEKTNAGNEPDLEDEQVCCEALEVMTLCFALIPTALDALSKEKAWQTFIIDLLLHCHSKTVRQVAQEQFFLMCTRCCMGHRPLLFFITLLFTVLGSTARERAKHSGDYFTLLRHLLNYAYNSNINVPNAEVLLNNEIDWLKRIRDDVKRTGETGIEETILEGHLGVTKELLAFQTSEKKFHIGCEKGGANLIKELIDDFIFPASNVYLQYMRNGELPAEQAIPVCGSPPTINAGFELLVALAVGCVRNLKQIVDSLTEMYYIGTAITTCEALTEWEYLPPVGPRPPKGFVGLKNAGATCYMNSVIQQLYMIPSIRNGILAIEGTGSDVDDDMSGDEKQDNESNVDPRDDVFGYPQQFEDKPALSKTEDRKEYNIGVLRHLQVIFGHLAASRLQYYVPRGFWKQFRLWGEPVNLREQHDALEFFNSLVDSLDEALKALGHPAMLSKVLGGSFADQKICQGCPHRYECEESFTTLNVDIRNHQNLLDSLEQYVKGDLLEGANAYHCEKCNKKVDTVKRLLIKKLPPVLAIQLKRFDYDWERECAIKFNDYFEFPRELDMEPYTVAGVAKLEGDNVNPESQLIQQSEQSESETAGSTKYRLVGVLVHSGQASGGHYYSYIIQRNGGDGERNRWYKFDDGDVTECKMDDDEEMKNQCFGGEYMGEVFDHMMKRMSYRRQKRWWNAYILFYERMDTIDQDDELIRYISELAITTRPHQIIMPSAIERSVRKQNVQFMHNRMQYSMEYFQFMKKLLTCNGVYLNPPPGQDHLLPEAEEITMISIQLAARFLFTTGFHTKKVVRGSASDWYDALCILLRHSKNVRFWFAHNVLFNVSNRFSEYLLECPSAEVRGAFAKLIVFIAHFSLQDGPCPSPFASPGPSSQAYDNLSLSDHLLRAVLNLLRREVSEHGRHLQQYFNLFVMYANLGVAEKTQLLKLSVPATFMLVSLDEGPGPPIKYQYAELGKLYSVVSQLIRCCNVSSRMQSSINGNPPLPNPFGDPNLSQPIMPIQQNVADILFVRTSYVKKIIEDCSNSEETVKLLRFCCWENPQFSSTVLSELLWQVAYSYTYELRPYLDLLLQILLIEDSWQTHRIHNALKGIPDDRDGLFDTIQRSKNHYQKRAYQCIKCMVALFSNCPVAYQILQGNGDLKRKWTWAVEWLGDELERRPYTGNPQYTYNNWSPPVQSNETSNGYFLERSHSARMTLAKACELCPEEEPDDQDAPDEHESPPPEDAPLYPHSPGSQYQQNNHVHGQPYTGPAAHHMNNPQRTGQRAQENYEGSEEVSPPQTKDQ
Sequence of Ubiquitin carboxyl-terminal hydrolase 7 (Q93009 whole entry): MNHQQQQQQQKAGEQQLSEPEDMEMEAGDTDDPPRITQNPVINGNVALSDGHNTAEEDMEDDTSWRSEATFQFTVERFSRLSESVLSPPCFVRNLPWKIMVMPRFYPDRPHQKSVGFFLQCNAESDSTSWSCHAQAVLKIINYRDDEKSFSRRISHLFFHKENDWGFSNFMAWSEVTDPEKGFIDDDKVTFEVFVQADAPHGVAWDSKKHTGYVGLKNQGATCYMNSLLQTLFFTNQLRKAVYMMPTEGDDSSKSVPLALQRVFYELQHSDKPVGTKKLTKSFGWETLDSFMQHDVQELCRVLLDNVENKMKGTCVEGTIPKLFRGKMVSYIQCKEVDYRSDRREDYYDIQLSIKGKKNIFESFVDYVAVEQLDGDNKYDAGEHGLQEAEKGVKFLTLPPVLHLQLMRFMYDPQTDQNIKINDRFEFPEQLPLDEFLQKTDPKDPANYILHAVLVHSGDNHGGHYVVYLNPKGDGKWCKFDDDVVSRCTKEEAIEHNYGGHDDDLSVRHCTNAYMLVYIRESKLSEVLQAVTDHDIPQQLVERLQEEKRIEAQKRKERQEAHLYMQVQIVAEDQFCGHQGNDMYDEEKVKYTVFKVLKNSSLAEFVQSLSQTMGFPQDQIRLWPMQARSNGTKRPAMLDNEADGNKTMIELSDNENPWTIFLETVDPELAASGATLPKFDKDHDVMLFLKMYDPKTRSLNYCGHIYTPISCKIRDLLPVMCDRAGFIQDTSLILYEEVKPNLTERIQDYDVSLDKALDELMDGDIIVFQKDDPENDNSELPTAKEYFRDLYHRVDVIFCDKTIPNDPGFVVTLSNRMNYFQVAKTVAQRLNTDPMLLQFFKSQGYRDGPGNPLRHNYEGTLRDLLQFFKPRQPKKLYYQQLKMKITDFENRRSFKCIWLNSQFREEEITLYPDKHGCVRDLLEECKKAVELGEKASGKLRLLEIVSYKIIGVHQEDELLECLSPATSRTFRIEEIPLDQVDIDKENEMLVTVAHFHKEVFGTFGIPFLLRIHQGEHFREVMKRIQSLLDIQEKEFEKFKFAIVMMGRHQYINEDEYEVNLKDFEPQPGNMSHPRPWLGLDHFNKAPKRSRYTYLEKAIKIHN

Compound | Kd [1] [µM] | other results
O=C(O)CNC(=O)c1ccc(S(=O)(=O)N2CC(c3ccccc3)C2)cc1 | > 1000 | –
CN1CCC(NS(=O)(=O)c2ccc(C(=O)NCC(=O)O)cc2)CC1 | > 1000 | –
CN1CCN(C2CCN(S(=O)(=O)c3ccc(C(=O)NCC(=O)O)cc3)CC2)CC1 | 370 | –
O=C(O)CNC(=O)c1ccc(S(=O)(=O)N2Cc3ccccc3C2)cc1 | > 480 | –
N#CSc1cc(SC#N)c(N)nc1N | – | EC50 [2]: 3.9 µM; EC50 [3]: 8.6 µM; EC50 [4]: 7.2 µM; EC50 [5]: 4.9 µM; EC50 [6]: 6.9 µM
O=C(O)CNC(=O)c1ccc(S(=O)(=O)N2CCC3(CC2)OCc2ccccc23)cc1 | 440 | –
CN1CCC2(CC1)CCN(S(=O)(=O)c1ccc(C(=O)NCC(=O)O)cc1)CC2 | 410 | –
O=C(O)CNC(=O)c1ccc(S(=O)(=O)N2CCC(c3ccccc3)CC2)cc1Cl | 150 | –
O=C(O)CNC(=O)c1ccc(S(=O)(=O)N2CCC(c3ccc(Cl)cc3)CC2)cn1 | – | remaining at 1 h, 1 µM [7]: > 90%; remaining at 1 h, 1 µM [8]: > 90%
O=C(O)CNC(=O)c1ccc(S(=O)(=O)N2CCC(c3ccccc3)C2)cc1 (stereo not drawn) | > 1000 | –
Cn1cc(S(=O)(=O)N2CCC(c3ccccc3)CC2)cc1C(=O)NCC(=O)O | > 1000 | –
O=C(O)CNC(=O)c1ccc(S(=O)(=O)N2CCC(N3CCCC3)CC2)cc1 | 520 | –
O=C(O)CNC(=O)c1ccc(S(=O)(=O)N2CCCC(c3ccccc3)CC2)cc1 (stereo not drawn) | > 640 | –
CCC[C@H](NC(=O)/C(C#N)=C/c1cccc(Br)n1)c1ccccc1 | – | inhibition [9]: 50%; inhibition [10]: 45%; inhibition [11]: 30%
O=C(O)CNC(=O)c1ccc(S(=O)(=O)N2CC=C(c3ccccc3)CC2)cc1 | 340 | –
O=C(O)CNC(=O)c1ccc(S(=O)(=O)N2CCC(N3CCOCC3)CC2)cc1 | > 1000 | –
CN(C)C1CCN(S(=O)(=O)c2ccc(C(=O)NCC(=O)O)cc2)CC1 | > 760 | –
O=C(O)CNC(=O)c1cccc(S(=O)(=O)N2CCC(c3ccccc3)CC2)c1 | > 440 | –
O=C(O)CNC(=O)c1ccc(S(=O)(=O)N2CCN(c3ccccc3)CC2)cc1 | > 480 | –
O=C(O)CNC(=O)c1ccc(S(=O)(=O)N2CCc3ccccc3C2)cc1 | 290 | –
Cc1cc(S(=O)(=O)N2CCC(c3ccccc3)CC2)ccc1C(=O)NCC(=O)O | 160 | –
